Reference: patent publication US20250346642A1, “NEW SPLICE VARIANT ISOFORM OF VEGF” (CENTRE NATIONAL DE LA RECHERCHE SCIENTIFIQUE (CNRS), priority 2020, published 2025)

What was measured:
[1] = test system: 786-O cells; assay: 786-O experimental RCC tumors in NMRI mice, antibody treatment (FIG. 10); format: in vivo; conditions: intraperitoneal once a week for 6 weeks, 5 mg/kg
Description: FIG. 10. VEGF222/NF inhibition delays tumor growth of experimental RCC. 3M of 786-O cells were subcutaneously grafted in the left flank of NMRI mice. […] Tumor volumes were monitored with a caliper for 50 days. ***P<0.001, ****P<0.0001 (Anova Test).
For generating control or polyclonal anti-VEGF222/NF antibodies, 6 weeks BALB/cJRj mice (n=10) were immunized either with KLH carrier protein or with specific peptides SEQ 1 and SEQ2 coupled to KLH as previously described (Guyot et al., 2017, Targeting the pro-angiogenic forms of VEGF or inhibiting their expression as anti-cancer strategies. Oncotarget 8, 9174-9188) IgG were purified of Protein G Sepharose column. All animal studies were approved in advance by the local animal care committee (Veterinary service and direction of sanitary and social action of Monaco, Dr H. Raps.)

[2] = test system: 786-O cells; assay: 786-O experimental tumors in mice, anti-VEGFXXX/NF, bevacizumab or anti-KLH treatment (FIG. 12D-J); format: in vivo; conditions: 786-O tumors
Procedure: (E) The weight of 786-O tumors at the end of the experiment. (F) Quantification of Ki67 positive cells in 786-0 tumors. […] (G) Number of mature (CD31+, a-SMA+) vessels in the different tumor sections.
Plasma levels of VEGFXXX/NFand VEGF are increased in the VEGF bevacizumab-treated group. […] FIG. 13. A-D) The levels of VEGF and VEGF222/NF were evaluated in the plasma (just before sunitinib treatment) of 47 metastatic ccRCC patients. The third quartile was used as the cut-off to determine patients' groups, respectively 4500 […] for VEGF and VEGF222/NF. The plasma levels of VEGF (A and C) or VEGF222/NF (B and D) were correlated to PFS under first-line sunitinib treatment (A and B) or with OS (C and D). Kaplan-Meier method was used to produce survival curves and analyzes of censored data were performed using Cox models. Statistical significance (p values) is indicated.
Tumor sections (5-μm cryostat sections) were fixed in 4% paraformaldehyde for twenty minutes at room temperature and blocked in 1% donkey serum in Tris-buffered saline (TBS) for two hours. […] Preparations were mounted and analyzed with a Leica microscope (Leica DMI4000B) and counted at a 10× magnification. Results are expressed as the number of vessels per mm^2 of sections.

**Q.** Which “tumor growth of 786-O experimental tumors” value [1] does the source give for bevacizumab here?
**A.** did not

**Q.** What about the “number of lymphatic vessels (LYVE1+) in tumors” value [2] of the same substance?
**A.** stimulated their development

**Q.** What about the “size of tumors versus control group” value [2] of the same substance?
**A.** equivalent to those of the control group
